Experimental findings from ChEMBL document CHEMBL1201862, “PubChem BioAssay data set” (2004) are described below.

Where “and” joins values, the source holds several entries; their conditions need not be identical. Equal entries are not always repeated.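 Exposure lasted 48 hours, with cells grown in 96-well plates and compounds tested at five concentrations. Here, GI50 denotes the concentration required for 50% inhibition of growth.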 Calls of active or inactive are those of the source. No stated cut-off is given here; in the data, active = GI50 up to about 1.1 µM and inactive = higher.

Common to all, as to test: growth of human tumour cells (NCI), 48 h
For assay [1], the system named is A498.
Assay [2] has as its system HCT-116.
Assay [3] has as its system SK-MEL-2.
Assay [4] concerns SK-OV-3.
In assay [5] the test system is NCI-H23.
In assay [6] the test system is EKVX.
Assay [7] concerns NCI-H460.
Assay [8] relates to OVCAR-8.
Assay [9] concerns COLO 205.
In assay [10] the test system is SK-MEL-28.
Assay [11] deals with U-251.
In assay [12] the test system is K562.
Assay [13] has as its system SW-620.
In assay [14] the test system is HL-60.
In assay [15] the test system is CCRF-CEM.
Assay [16] deals with SNB-19.
In assay [17] the test system is HOP-62.

In the case of `COc1c(Cl)c(Cl)c(OC)c2c1C(=O)C=CC2=O`, the GI50 in assay [1] was > 100 µM (inactive); in assay [2], 17.8 µM (inactive); in [3], 17.3 µM (inactive); in assay [4] it was 76.7 µM (inactive); in [5] it was 40.4 µM (inactive); in assay [6] it was 17.4 µM (inactive). For the same molecule, the GI50 is 37.8 µM (inactive) in assay [7]; 17.1 µM (inactive) in assay [8]; 16.2 µM (inactive) in assay [9]; 17.7 µM (inactive) in assay [10]; 20.7 µM (inactive) in assay [11]; 7.85 µM (inactive) in assay [12]. Further, the GI50 in [13] was 16.8 µM (inactive); in assay [14] it was 2.17 µM (inactive); in assay [15], 3.83 µM (inactive); in assay [16], 32.1 µM (inactive).
Take `O=C(Cc1ccc(F)cc1)NC1=C(Cl)C(=O)c2ccccc2C1=O`: the GI50 in [2] is 2.36 µM (inactive); in [3] it was 2.43 µM (inactive); in [17] it was 10 µM (inactive); in assay [4], 4.94 µM (inactive); in assay [5] it was 1.67 µM (inactive); in assay [6] it was 3.65 µM (inactive). The GI50 in assay [7] is 3.47 µM (inactive); in assay [8], 1.92 µM (inactive); in assay [9], 3.66 µM (inactive); in [10] it was 4.05 µM (inactive); in assay [11] it was 3.07 µM (inactive); in [12], 1.54 µM (inactive). Further, the GI50 was 2.24 µM (inactive) in assay [13], 0.0916 µM (active) in [14], 1.71 µM (inactive) in [15] and 5.58 µM (inactive) in assay [16].
With `COc1ccc2nc(NC(=O)C(=O)CC(=O)c3ccc([N+](=O)[O-])cc3)sc2c1`, the GI50 in [1], in assay [2], in [3], in [17], in [4] and in [5] was > 100 µM (inactive) each time. Also, the GI50 in assay [6], in [7], in assay [8], in [9], in [10] and in assay [11] was > 100 µM (inactive) each time. Besides, the GI50 in assay [12], in [13], in assay [15] and in [16] was > 100 µM (inactive) in each case.
On to `Cc1cc(C)c([O-])c(-[n+]2c(-c3ccccc3)cc(-c3ccccc3)cc2-c2ccccc2)c1`, for which the GI50 was 1.63 µM (inactive) in [2]; 2.88 µM (inactive) in [3]; 10.1 µM (inactive) in assay [17]; 13.7 µM (inactive) in [4]; 3.53 µM (inactive) in assay [5]; 8.07 µM (inactive) in assay [6]. Moreover, the GI50 in assay [7] is 4.48 µM (inactive); in assay [8], 4.33 µM (inactive); in assay [9], 3.22 µM (inactive); in assay [10], 4.81 µM (inactive); in [11], 3.38 µM (inactive); in assay [12], 3.21 µM (inactive). The GI50 in assay [13] is 4.1 µM (inactive); in assay [14], 1.62 µM (inactive); in [15], 1.73 µM (inactive); in [16], 8.89 µM (inactive).
Regarding `Cc1cc(C)c(-n2c(-c3ccccc3)cs/c2=N\N=C2C=C(C(C)(C)C)C(=O)C(C(C)(C)C)=C2)c(C)c1`, the GI50 in assay [2] was 64.6 µM (inactive); in assay [3], > 100 µM (inactive); in assay [17] it was > 100 µM (inactive); in [4], > 100 µM (inactive); in assay [5] it was 60.5 µM (inactive); in assay [6], 91.4 µM (inactive). In addition, the GI50 in [7] is > 100 µM (inactive); in assay [8], > 100 µM (inactive); in assay [9], > 100 µM (inactive); in assay [10], > 100 µM (inactive); in assay [11], > 100 µM (inactive); in [12], 55.8 µM (inactive). Also, the GI50 in assay [13] was > 100 µM (inactive); in assay [14], 50.5 µM (inactive); in assay [15], > 100 µM (inactive); in [16], > 100 µM (inactive).
On to `CN(C)/N=N/c1ccccc1`, for which the GI50 in assay [1], in [2], in assay [3], in assay [4], in [5] and in assay [6] was > 100 µM (inactive) each time. The GI50 in assay [7] is 98.9 µM (inactive); in [8], > 100 µM (inactive); in [9], > 100 µM (inactive); in assay [10] it was > 100 µM (inactive); in [11] it was > 100 µM (inactive); in assay [12], > 100 µM (inactive). For the same molecule, the GI50 is > 100 µM (inactive) in [13], > 100 µM (inactive) in [14], 22 µM (inactive) in [15] and > 100 µM (inactive) in assay [16].
`O=C(CC(=O)n1nc(-c2ccccc2)c(/N=N/c2ccc([N+](=O)[O-])cc2)c1-c1ccccc1)Nc1ccc(Cl)cc1`: the GI50 was 12.9 µM (inactive) in assay [2]; 34.8 µM (inactive) in assay [3]; 14.5 µM (inactive) in [17]; 18.8 µM (inactive) in assay [4]; 27.2 µM (inactive) in assay [5]; 26.7 µM (inactive) in assay [6]. Also, the GI50 in assay [7] was 30.1 µM (inactive); in assay [8], 35.8 µM (inactive); in assay [9] it was 18 µM (inactive); in [10] it was 17.9 µM (inactive); in assay [11], 18.9 µM (inactive); in [12], 4.19 µM (inactive). The GI50 in [13] was 21.6 µM (inactive); in assay [14], 17 µM (inactive); in [15] it was 15.6 µM (inactive); in assay [16], 26.4 µM (inactive).
Take `CC(SC(=S)N1CCOCC1)c1cc2oc(=O)n(C)c2cc1Cl` (centres undefined): the GI50 in [2], in [3], in [17], in assay [4], in [5] and in assay [6] was > 100 µM (inactive) in each case. Further, the GI50 is > 100 µM (inactive) in assay [7]; > 100 µM (inactive) in assay [8]; > 100 µM (inactive) in assay [9]; > 100 µM (inactive) in assay [10]; > 100 µM (inactive) in assay [11]; 33.3 µM (inactive) in [12]. The GI50 in assay [13] is > 10 µM (inactive); in [14], 39.4 µM (inactive); in assay [15], 19.8 µM (inactive); in assay [16] it was > 100 µM (inactive).
For the molecule `Cc1cc(C)c(C(=O)C(C)C(c2ccccc2)c2ccc(Cl)cc2)c(C)c1` (centres undefined), the GI50 was > 100 µM (inactive) and 56.1 µM (inactive) in assay [2]; > 100 µM (inactive) in assay [17]; > 100 µM (inactive) in [4]; > 100 µM (inactive) and 60.7 µM (inactive) in assay [5]; > 100 µM (inactive) in assay [6]; > 100 µM (inactive) in assay [7]. The GI50 was > 100 µM (inactive) in [8]; > 100 µM (inactive) in [9]; > 100 µM (inactive) in assay [10]; > 100 µM (inactive) in assay [11]; 50.5 µM (inactive) and 48.8 µM (inactive) in [12]; > 100 µM (inactive) in [13]. The GI50 in [15] was 46.3 µM (inactive) and 67.5 µM (inactive).
Regarding `CN(C)C=C1C(=O)N(C)C(=O)N(C)C1=O`, the GI50 in assay [1], in [2], in assay [3], in [5], in assay [6] and in [7] was > 100 µM (inactive) throughout. Besides, the GI50 in [8], in assay [10], in assay [11], in assay [12], in assay [13] and in assay [14] was > 100 µM (inactive) in each case. For the same molecule, the GI50 in assay [15] and in [16] was > 100 µM (inactive) throughout.
For `C=C1C(=O)OC2C1C(OC(=O)/C(=C/C)COC(C)=O)CC1(CO1)C1C(OC(=O)/C(=C/C)CO)C=C(C)C21` (centres undefined), the GI50 in assay [1] is 3.03 µM (inactive); in assay [2], 1.63 µM (inactive); in assay [3] it was 1.87 µM (inactive); in assay [4] it was 17.1 µM (inactive); in [5], 1.63 µM (inactive); in assay [6], 2 µM (inactive). The GI50 in assay [7] is 6.98 µM (inactive); in assay [8] it was 0.564 µM (active); in assay [9], 1.09 µM (active); in assay [10], 1.82 µM (inactive); in [11] it was 15.1 µM (inactive); in assay [12] it was 1.6 µM (inactive). Also, the GI50 in assay [13] was 0.736 µM (active); in assay [14], 0.446 µM (active); in [15], 0.333 µM (active); in [16], 3.36 µM (inactive).
As to `COc1ccc(C/C(=N/O)C(=O)NCCc2cc(Br)c(OCCCN(C)C)c(Br)c2)cc1Br` [APLYSAMINE 2], the GI50 in assay [2] is 14.5 µM (inactive); in assay [3], 20.1 µM (inactive); in [17] it was 15.8 µM (inactive); in assay [5], > 10 µM (inactive); in [6], 19.6 µM (inactive); in assay [7], 17.3 µM (inactive). For the same molecule, the GI50 in assay [8] is 21.9 µM (inactive); in assay [9], 18.8 µM (inactive); in assay [10], 17.7 µM (inactive); in assay [11] it was 17.7 µM (inactive); in assay [13] it was 16.6 µM (inactive); in assay [14] it was 12.3 µM (inactive). Further, the GI50 in assay [16] is 16.3 µM (inactive).
